Literature values as cited in publication PMC11990879, “Anticandidal Activity of Lipopeptides Containing an LL-37-Derived Peptide Fragment KR12” (Molecules, 2025).
Like-named read-outs stand apart in the source and are kept apart here. Marks after values point to notes of the source that are not given here. Where a SMILES comes first, the peptide text is derived from it. The star is where a group is joined. Butanoyl(4-Ph) = O=C(CCCc1ccccc1)*; Hydrocinnamoyl = O=C(CCc1ccccc1)*; Octanoyl = CCCCCCCC(=O)*; X3 = O=C(/C=C/c1ccccc1)*; X2 = O=C(C#Cc1ccccc1)*; X4 = CCCCC(CC)C(=O)*; Butyryl = CCCC(=O)*

Tested on: human red blood cells
Conditions: cited from earlier work
From the text: Table 2 Minimum inhibitory concentrations (MIC) and minimum fungicidal concentrations (MFC) determined for peptides and reference antifungals [g/L]. The highest antimicrobial activity is marked in green, medium values in yellow, while the weakest antifungal activity is marked in red. Minimum hemolytic concentration (MHC5%—causing hemolysis of 5% of human red blood cells) determined in previous stu | column: MHC5%

[1] = human red blood cells, determined in previous studies, ref [13],[14]

Compound | MHC5% (minimum hemolytic concentration causing hemolysis of 5% of human red blood cells) [1] | MHC5% (minimum hemolytic concentration causing hemolysis of 5% of human red blood cells)
CCCCCCCC(=O)NCCCC[C@H](NC(=O)[C@H](CC(C)C)NC(=O)[C@H](Cc1ccccc1)NC(=O)[C@H](CC(=O)O)NC(=O)[C@H](CCCCN)NC(=O)[C@@H](NC(=O)[C@H](CCCNC(=N)N)NC(=O)[C@H](CCC(N)=O)NC(=O)[C@@H](NC(=O)[C@@H](NC(=O)[C@H](CCCNC(=N)N)NC(=O)[C@@H](N)CCCCN)[C@@H](C)CC)C(C)C)[C@@H](C)CC)C(N)=O [XV, [Lys^ε(C8)]^12KR12-NH2] (H-KRIVQRIKDFLK(Octanoyl)-NH2) | >256 * g/L | –
Ac-KRIVQRIKDFLR-NH2 [I, Ac-KR12-NH2] | >256 * g/L | –
CCCCCCCC(=O)NCCCC[C@H](NC(=O)[C@H](CCCNC(=N)N)NC(=O)[C@H](CC(C)C)NC(=O)[C@H](Cc1ccccc1)NC(=O)[C@H](CC(=O)O)NC(=O)[C@H](CCCCN)NC(=O)[C@@H](NC(=O)[C@H](CCCNC(=N)N)NC(=O)[C@H](CCC(N)=O)NC(=O)[C@@H](NC(=O)[C@@H](NC(=O)[C@H](CCCNC(=N)N)NC(=O)[C@@H](N)CCCCN)[C@@H](C)CC)C(C)C)[C@@H](C)CC)C(N)=O [XIV, KR12-Lys^ε(C8)-NH2] (H-KRIVQRIKDFLRK(Octanoyl)-NH2) | >256 * g/L | –
CC[C@H](C)[C@H](NC(=O)[C@H](CCCNC(=N)N)NC(=O)[C@H](CCC(N)=O)NC(=O)[C@@H](NC(=O)[C@@H](NC(=O)[C@H](CCCNC(=N)N)NC(=O)[C@H](CCCCN)NC(=O)/C=C/c1ccccc1)[C@@H](C)CC)C(C)C)C(=O)N[C@@H](CCCCN)C(=O)N[C@@H](CC(=O)O)C(=O)N[C@@H](Cc1ccccc1)C(=O)N[C@@H](CC(C)C)C(=O)N[C@@H](CCCNC(=N)N)C(N)=O [IX, trans-cinnamic acid-KR12-NH2] (X3-KRIVQRIKDFLR-NH2) | – | 128 g/L
CCCCCCCC(=O)NCCCC[C@H](N)C(=O)N[C@@H](CCCCN)C(=O)N[C@@H](CCCNC(=N)N)C(=O)N[C@H](C(=O)N[C@H](C(=O)N[C@@H](CCC(N)=O)C(=O)N[C@@H](CCCNC(=N)N)C(=O)N[C@H](C(=O)N[C@@H](CCCCN)C(=O)N[C@@H](CC(=O)O)C(=O)N[C@@H](Cc1ccccc1)C(=O)N[C@@H](CC(C)C)C(=O)N[C@@H](CCCNC(=N)N)C(N)=O)[C@@H](C)CC)C(C)C)[C@@H](C)CC [XIII, C8^ε-Lys-KR12-NH2] (H-K(Octanoyl)KRIVQRIKDFLR-NH2) | 256 g/L | –
CCCCCCCC(=O)N[C@@H](CCCCN)C(=O)N[C@@H](CCCCN)C(=O)N[C@@H](CCCNC(=N)N)C(=O)N[C@H](C(=O)N[C@H](C(=O)N[C@@H](CCC(N)=O)C(=O)N[C@@H](CCCNC(=N)N)C(=O)N[C@H](C(=O)N[C@@H](CCCCN)C(=O)N[C@@H](CC(=O)O)C(=O)N[C@@H](Cc1ccccc1)C(=O)N[C@@H](CC(C)C)C(=O)N[C@@H](CCCNC(=N)N)C(N)=O)[C@@H](C)CC)C(C)C)[C@@H](C)CC [XII, C8^α-Lys-KR12-NH2] (Octanoyl-KKRIVQRIKDFLR-NH2) | – | 256 g/L
CC[C@H](C)[C@H](NC(=O)[C@H](CCCNC(=N)N)NC(=O)[C@H](CCC(N)=O)NC(=O)[C@@H](NC(=O)[C@@H](NC(=O)[C@H](CCCNC(=N)N)NC(=O)[C@H](CCCCN)NC(=O)CCc1ccccc1)[C@@H](C)CC)C(C)C)C(=O)N[C@@H](CCCCN)C(=O)N[C@@H](CC(=O)O)C(=O)N[C@@H](Cc1ccccc1)C(=O)N[C@@H](CC(C)C)C(=O)N[C@@H](CCCNC(=N)N)C(N)=O [XXII, 3-Phenylpropionic acid-KR12-NH2] (Hydrocinnamoyl-KRIVQRIKDFLR-NH2) | 256 g/L | –
CCCCCCCC(=O)N[C@@H](CCCNC(=N)N)C(=O)N[C@@H](CC(C)C)C(=O)N[C@@H](Cc1ccccc1)C(=O)N[C@@H](CC(=O)O)C(=O)N[C@@H](CCCCN)C(=O)N[C@H](C(=O)N[C@@H](CCCNC(=N)N)C(=O)N[C@@H](CCC(N)=O)C(=O)N[C@H](C(=O)N[C@H](C(=O)N[C@@H](CCCNC(=N)N)C(=O)N[C@@H](CCCCN)C(N)=O)[C@@H](C)CC)C(C)C)[C@@H](C)CC [XVIII, C8^α-retro-KR12-NH2] (Octanoyl-RLFDKIRQVIRK-NH2) | >256 * g/L | –
CC[C@H](C)[C@H](NC(=O)[C@H](CCCNC(=N)N)NC(=O)[C@H](CCC(N)=O)NC(=O)[C@@H](NC(=O)[C@@H](NC(=O)[C@H](CCCNC(=N)N)NC(=O)[C@H](CCCCN)NC(=O)CCCc1ccccc1)[C@@H](C)CC)C(C)C)C(=O)N[C@@H](CCCCN)C(=O)N[C@@H](CC(=O)O)C(=O)N[C@@H](Cc1ccccc1)C(=O)N[C@@H](CC(C)C)C(=O)N[C@@H](CCCNC(=N)N)C(N)=O [XXIII, 4-Phenylbutanoic acid-KR12-NH2] ({Butanoyl(4-Ph)}-KRIVQRIKDFLR-NH2) | – | 128 g/L
CCCCCCCC(=O)NCCCC[C@H](N)C(=O)N[C@@H](CCCNC(=N)N)C(=O)N[C@H](C(=O)N[C@H](C(=O)N[C@@H](CCC(N)=O)C(=O)N[C@@H](CCCNC(=N)N)C(=O)N[C@H](C(=O)N[C@@H](CCCCN)C(=O)N[C@@H](CC(=O)O)C(=O)N[C@@H](Cc1ccccc1)C(=O)N[C@@H](CC(C)C)C(=O)N[C@@H](CCCNC(=N)N)C(N)=O)[C@@H](C)CC)C(C)C)[C@@H](C)CC [XI, C8^ε-KR12-NH2] (H-K(Octanoyl)RIVQRIKDFLR-NH2) | – | >256 * g/L
CCCCC(CC)C(=O)N[C@@H](CCCCN)C(=O)N[C@@H](CCCNC(=N)N)C(=O)N[C@H](C(=O)N[C@H](C(=O)N[C@@H](CCC(N)=O)C(=O)N[C@@H](CCCNC(=N)N)C(=O)N[C@H](C(=O)N[C@@H](CCCCN)C(=O)N[C@@H](CC(=O)O)C(=O)N[C@@H](Cc1ccccc1)C(=O)N[C@@H](CC(C)C)C(=O)N[C@@H](CCCNC(=N)N)C(N)=O)[C@@H](C)CC)C(C)C)[C@@H](C)CC (stereo partly shown) [XX, 2-Ethylhexanoic acid-KR12-NH2] (X4-KRIVQRIKDFLR-NH2) | – | 256 g/L
CC[C@H](C)[C@H](NC(=O)[C@H](CCCNC(=N)N)NC(=O)[C@H](CCC(N)=O)NC(=O)[C@@H](NC(=O)[C@@H](NC(=O)[C@H](CCCNC(=N)N)NC(=O)[C@H](CCCCN)NC(=O)C#Cc1ccccc1)[C@@H](C)CC)C(C)C)C(=O)N[C@@H](CCCCN)C(=O)N[C@@H](CC(=O)O)C(=O)N[C@@H](Cc1ccccc1)C(=O)N[C@@H](CC(C)C)C(=O)N[C@@H](CCCNC(=N)N)C(N)=O [XXIV, Phenylpropiolic acid-KR12-NH2] (X2-KRIVQRIKDFLR-NH2) | – | 256 g/L
CCCC(=O)N[C@@H](CCCCN)C(=O)N[C@@H](CCCNC(=N)N)C(=O)N[C@H](C(=O)N[C@H](C(=O)N[C@@H](CCC(N)=O)C(=O)N[C@@H](CCCNC(=N)N)C(=O)N[C@H](C(=O)N[C@@H](CCCCN)C(=O)N[C@@H](CC(=O)O)C(=O)N[C@@H](Cc1ccccc1)C(=O)N[C@@H](CC(C)C)C(=O)N[C@@H](CCCNC(=N)N)C(N)=O)[C@@H](C)CC)C(C)C)[C@@H](C)CC [II, C4-KR12-NH2] (Butyryl-KRIVQRIKDFLR-NH2) | >256 * g/L | –
